Data on four molecules can be found in patent US9408386B2, “Use of succinate dehydrogenase inhibitors (SDHIs) for controlling wood diseases in grape” (BAYER CROPSCIENCE AG, priority 2012, dated 2016).

SMILES strings stand for the structures.

Format in all cases: cell-based
One experiment has as its system Botryosphaeria dothidea. Briefly: In vitro mycelium growth test on malt agar medium. The conditions noted are these: 50 ppm in malt agar, 22° C., colony diameter, Abbott formula. The protocol:
(§1) This test is carried out on representative fungi found in grape plants showing “Esca” Symptoms
(§2) Formulated products are diluted in sterilized dematerialized water at the desired concentration and added to malt agar medium. Fluopyram and penflufen were used as a […] formulation formulation containing 100 g/l active ingredient (SC 100), Bixafen as a emulsifiable concentrate formulation containing 200 g/l active ingredient (EC 200), and tebuconazole as a oil in water emulsion formulation containing 250 g/l active ingredient (EW 250). The medium containing the product to be tested is poured in 90 mm diameter Petri dishes. Each dish is then inoculated using a 5 mm diameter mycelium plug taken, using a cork borer, from the active growing edge of a colony.
(§3) Inoculated Petri dishes are then incubated at 22° C. with a photoperiod of 12 h. The incubation period corresponds to the time required for the fungus to invade the entire surface of the growth medium. At that time, mycelium growth is evaluated by calculating the mean of two perpendicular measure of the colony diameter. A percentage of efficacy is then calculated (Abbott formula).
(§4) The concentration of 50 ppm corresponds approximately to about 50 g/ha when an application amount of 1000 l water per hectare is used.

The test system of another experiment is Botryosphaeria obtusa. Briefly: In vitro mycelium growth test on malt agar medium. To be noted: 50 ppm in malt agar, 22° C., colony diameter, Abbott formula. The protocol:
as §1, §2, §3, §4

The test system of the next experiment is Eutypa lata. Briefly: In vitro mycelium growth test on malt agar medium. The conditions noted are these: 50 ppm in malt agar, 22° C., colony diameter, Abbott formula. The protocol:
as §1, §2, §3, §4

Another experiment has as its system Formitiporia mediteranea. Nature of the experiment: In vitro mycelium growth test on malt agar medium. The procedure: as §1, §2, §3, §4
In experiment [1] the test system is Phaemoniella chlamydospora. Briefly: In vitro mycelium growth test on malt agar medium. The procedure:
as §1, §2, §3, §4

For experiment [2], the system named is Phaeoacremonium aleophilum. Briefly: In vitro mycelium growth test on malt agar medium. To be noted: 50 ppm in malt agar, 22° C., colony diameter, Abbott formula. The protocol:
as §1, §2, §3, §4

Experiment [3] relates to several fungi belonging to the community usually found in plants showing Esca symptoms. Nature of the experiment: In vitro mycelium growth test, summary over the Esca fungi community. The conditions noted are these: at 50 ppm. The procedure:
as §1, §2, §3, §4

Setting [4] is: Formitiporia mediteranea, 50 ppm in malt agar, 22° C., colony diameter, Abbott formula.
The mark [5] stands for this setting: Phaemoniella chlamydospora, 50 ppm in malt agar, 22° C., colony diameter, Abbott formula.

As for `Cn1cc(C(=O)Nc2ccc(F)cc2-c2ccc(Cl)c(Cl)c2)c(C(F)F)n1` [Bixafen, bixafen], the “In Vitro Efficacy Mycellium**” value in the experiment with Botryosphaeria dothidea is 86%; in the experiment on Botryosphaeria obtusa it was 85%; in the experiment with Eutypa lata it was 100%; in the experiment with Formitiporia mediteranea (setting [4]), 100%; in experiment [1] (setting [5]) it was 100%; in experiment [2], 69%. The “reduction of several fungi of the Esca community” value (“reduction” below) in experiment [3] was “significant reduction”.
In the case of `O=C(NCCc1ncc(C(F)(F)F)cc1Cl)c1ccccc1C(F)(F)F` [Fluopyram, N-[2-[3-chloro-5-(trifluoromethyl)-2-pyridinyl]ethyl]-2-(trifluoromethyl)benzamide], the “In Vitro Efficacy Mycellium**” value in the experiment on Botryosphaeria dothidea is listed as 55%; in the experiment with Botryosphaeria obtusa, 65%; in the experiment on Eutypa lata it was 61%; in the experiment with Formitiporia mediteranea (50 ppm) it was 10%; in experiment [1] (50 ppm), 59%; in experiment [2], 35%. In addition, in experiment [3], the “reduction” value is reported as “significant reduction”.
With `Cc1nn(C)c(F)c1C(=O)Nc1ccccc1C(C)CC(C)C` (stereo not drawn) [Penflufen, penflufen], the “In Vitro Efficacy Mycellium**” value in the experiment with Botryosphaeria dothidea is 64%; in the experiment on Botryosphaeria obtusa it was 65%; in the experiment on Eutypa lata, 83%; in the experiment with Formitiporia mediteranea (setting [4]), 100%; in experiment [1] (setting [5]) it was 75%; in experiment [2], 62%. The “reduction” value in experiment [3] is “significant reduction”.
`CC(C)(C)C(O)(CCc1ccc(Cl)cc1)Cn1cncn1` (stereo not drawn) [Tebuconazole, tebuconazole]: the “In Vitro Efficacy Mycellium**” value (in the experiment with Botryosphaeria dothidea; in the experiment on Botryosphaeria obtusa; in the experiment with Eutypa lata; in the experiment on Formitiporia mediteranea (50 ppm); in experiment [1] (50 ppm); in experiment [2]) was 100% each time.
